Calls of active or inactive are those of the source.
Target: Protein-tyrosine kinase 2-beta (Homo sapiens) (UniProt Q14289)
Assay: Inhibition of Pyk2-mediated stimulation of human SF767 glioma cell migration at 50 uM by radial migration assay relative to control
Settings: not given

Chain of Protein-tyrosine kinase 2-beta (Homo sapiens) (Q14289 whole entry, looked up, the tested form may be a part): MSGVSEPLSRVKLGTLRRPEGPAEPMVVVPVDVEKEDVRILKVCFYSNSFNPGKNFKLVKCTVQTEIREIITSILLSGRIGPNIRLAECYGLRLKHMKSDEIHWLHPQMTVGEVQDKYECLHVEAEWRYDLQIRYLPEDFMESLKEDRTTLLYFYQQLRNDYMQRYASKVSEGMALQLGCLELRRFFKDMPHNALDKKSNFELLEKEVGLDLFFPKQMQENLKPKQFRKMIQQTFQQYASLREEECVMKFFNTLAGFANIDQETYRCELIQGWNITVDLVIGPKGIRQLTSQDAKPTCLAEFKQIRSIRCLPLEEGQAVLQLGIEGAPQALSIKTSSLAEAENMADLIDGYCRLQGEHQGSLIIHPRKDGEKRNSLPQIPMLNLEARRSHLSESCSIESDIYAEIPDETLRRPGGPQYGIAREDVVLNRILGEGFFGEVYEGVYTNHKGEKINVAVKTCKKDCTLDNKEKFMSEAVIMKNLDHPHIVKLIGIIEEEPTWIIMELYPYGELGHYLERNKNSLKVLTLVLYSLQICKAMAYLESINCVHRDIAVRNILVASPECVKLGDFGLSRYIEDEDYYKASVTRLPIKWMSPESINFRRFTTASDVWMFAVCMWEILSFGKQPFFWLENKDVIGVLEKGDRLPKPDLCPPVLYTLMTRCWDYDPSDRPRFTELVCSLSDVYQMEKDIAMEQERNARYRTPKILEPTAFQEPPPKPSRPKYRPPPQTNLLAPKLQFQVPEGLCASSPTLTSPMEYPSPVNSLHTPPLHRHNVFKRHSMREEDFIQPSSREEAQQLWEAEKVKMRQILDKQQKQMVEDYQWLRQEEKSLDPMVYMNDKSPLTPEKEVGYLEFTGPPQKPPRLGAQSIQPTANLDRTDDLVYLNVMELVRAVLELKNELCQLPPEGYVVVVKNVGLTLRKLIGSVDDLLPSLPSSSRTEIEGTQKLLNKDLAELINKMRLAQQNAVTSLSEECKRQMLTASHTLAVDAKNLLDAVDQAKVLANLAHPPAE

inhibition | SMILES
85% | C=CCOC(=O)NCCSc1nc2ccc(NC(=O)c3csnn3)cc2s1

Target: Protein-tyrosine kinase 2-beta (Homo sapiens) (UniProt Q14289)
Assay: Inhibition of HA-epitope-tagged Pyk2 FERM domain expressed in HEK293 cells assessed as inhibition of binding to 12A10 antibody by ELISA
Assay type: cell-based
Design: inhibition: concentration or dose not given beside the values
Settings: not given

Activity | SMILES
inactive | C=CCOC(=O)NCCSc1nc2ccc(NC(=O)c3ccc([N+](=O)[O-])cc3F)cc2s1
inactive | COc1ccc(C(N)=O)cc1NC(=O)c1csc(C2CCN(C(=O)C#Cc3ccccc3)CC2)n1
inactive | C=CCOC(=O)NCCSc1nc2ccc(NC(=O)c3cc(C)n(C)n3)cc2s1
inactive | C=CCOC(=O)NCCSc1nc2ccc(NC(=O)C(C)(C)n3cncn3)cc2s1
inactive | COc1ccc(C(N)=O)cc1NC(=O)c1csc(C2CCN(C(=O)c3cc(OC)c4ccccc4n3)CC2)n1
inactive | O=C(N1CCc2ccc(S(=O)(=O)Nc3ccc(Cl)nn3)cc2C1)C(F)(F)F
inactive | CC(=O)Nc1cccc(OCCCNC(=O)c2csc(C3CCN(C(=O)C4CCCCC4)CC3)n2)c1
inactive | Cc1ccc(C(=O)NCCCn2ccnc2)c(C2CCN(C(=O)/C=C/c3cccc(O)c3)CC2)n1
inactive | Cc1ccc(C(=O)NCCc2c[nH]c3ccccc23)c(C2CCN(C(=O)c3ccc(NC(N)=S)cc3)CC2)n1
inactive | N#Cc1c(Cl)cccc1Oc1ccc(S(=O)(=O)Nc2ccc(S(=O)(=O)Nc3ccccn3)cc2)cc1
inactive | Cc1cc(C)cc(NC(=O)N2CCC3(CCN(C(=O)CCCC[C@@H]4SC[C@@H]5NC(=O)N[C@@H]54)C3)CC2)c1
inactive | C=CCOC(=O)NCCSc1nc2ccc(NC(=O)[C@H]3CCOC3)cc2s1
inactive | Cc1ccc(C(=O)NCCc2cccs2)c(C2CCN(C(=O)c3nc4ccccc4nc3O)CC2)n1
inactive | C#CC[C@H](NC(C)=O)C(=O)Nc1ccc2nc(SCCNC(=O)OCC=C)sc2c1
inactive | O=C(COc1ccccc1)NNC(=O)c1csc(C2CCN(C(=O)NCCC3=CCCCC3)CC2)n1
inactive | C=CCOC(=O)NCCSc1nc2ccc(NC(=O)c3c([N+](=O)[O-])c(C)nn3C)cc2s1
inactive | C=CCOC(=O)NCCSc1nc2ccc(NC(=O)Cc3ccc([N+](=O)[O-])cc3)cc2s1
inactive | C=CCOC(=O)NCCSc1nc2ccc(NC(=O)c3c(C)noc3C)cc2s1
inactive | COc1ccc(C(=O)CCC(=O)N2CCC(c3nc(C(=O)Nc4cc(C(N)=O)ccc4OC)cs3)CC2)cc1
inactive | C=CCOC(=O)NCCSc1nc2ccc(NC(=O)C3CCN(C(=O)c4ccccc4)CC3)cc2s1

Activity | SMILES
inactive | CC(=O)Nc1ccc(O)c(C(=O)N2CCC(c3nc(C)ccc3C(=O)NCCc3cccs3)CC2)c1
inactive | O=C(NCC(=O)N1CCC2(CC1)CCN(C(=S)NC[C@@H]1CCCO1)C2)c1ccco1
inactive | CCOC(=O)c1nc(NC(=O)c2csc(C3CCN(C(=O)NCCC4=CCCCC4)CC3)n2)cn1C
inactive | CN(C)c1ccc(NC(=S)N2CCC(c3nc(C(=O)NCCc4c[nH]c5ccc(F)cc45)cs3)CC2)cc1
inactive | C=CCOC(=O)NCCSc1nc2ccc(NC(=O)Cc3nc(C)sc3C)cc2s1
inactive | C=CCOC(=O)NCCSc1nc2ccc(NC(=O)c3cc(NC(C)=O)cc(NC(C)=O)c3)cc2s1
inactive | Cc1cc(NS(=O)(=O)c2ccc3c(c2)CN(C(=O)C(F)(F)F)CC3)nc(C)n1
inactive | COc1ccc(OC)c(NC(=S)NCC(=O)N[C@@H](CC(C)C)C(N)=O)c1
inactive | C=CCOC(=O)NCCSc1nc2ccc(NC(=O)c3cccc(C#N)c3)cc2s1
inactive | C=CCOC(=O)NCCSc1nc2ccc(NC(=O)[C@H]3CCCN3C(=O)c3cccs3)cc2s1
inactive | O=C(NNC(=O)c1n[nH]c2ccccc12)c1csc(C2CCN(C(=O)NCCC3=CCCCC3)CC2)n1
inactive | C=CCOC(=O)NCCSc1nc2ccc(NC(=O)/C=C/c3ccc([N+](=O)[O-])o3)cc2s1
inactive | COc1ccc(C(N)=O)cc1NC(=O)c1csc(C2CCN(C(=O)c3cnn(-c4ccccc4)c3C)CC2)n1
inactive | O=C(Nc1ccccc1N1CCOCC1)c1csc(C2CCN(C(=O)NCCC3=CCCCC3)CC2)n1
inactive | C=CCOC(=O)NCCSc1nc2ccc(NC(=O)c3coc4c3C(=O)CCC4)cc2s1
inactive | O=C(CN1CCCN(C(=O)CNC(=O)c2ccco2)CC1)NCCc1ccccc1
inactive | CC(=O)Nc1ccc(S(=O)(=O)NNC(=O)Nc2c(C(C)C)cccc2C(C)C)cc1Cl
inactive | CCOC(=O)NNC(=O)c1csc(C2CCN(C(=O)Cc3c[nH]c4ccccc34)CC2)n1
inactive | CN(C)c1ccc(NC(=S)N2CCC(c3nc(C(=O)NC[C@H](c4ccc[nH]4)C(F)(F)F)cs3)CC2)cc1
inactive | COc1ccc(C(N)=O)cc1NC(=O)c1csc(C2CCN(C(=O)c3cc4ccccc4o3)CC2)n1

Activity | SMILES
inactive | Cc1cccc(C)c1NC(=O)CN1CCCN(C(=O)CNC(=O)c2ccco2)CC1
inactive | COC(=O)c1ccc(NS(=O)(=O)c2ccc(NC(C)=O)c(Cl)c2)cc1OC
inactive | CCOc1ccccc1CNC(=O)c1ccc(C)nc1C1CCN(C(=O)/C=C/c2cccc(O)c2)CC1
inactive | C=CCOC(=O)NCCSc1nc2ccc(NC(=O)C3(C#N)CC3)cc2s1
inactive | O=C(NNC(=O)[C@H]1CCCNC1=O)c1csc(C2CCN(C(=O)NCCC3=CCCCC3)CC2)n1
inactive | Cc1nc(C)c(C(=O)NNC(=O)c2csc(C3CCN(C(=O)Cc4c[nH]c5ccccc45)CC3)n2)s1
inactive | COc1ccccc1NC(=O)N1CCC2(CC1)CCN(S(=O)(=O)c1sc(NC(C)=O)nc1C)C2
inactive | CCCCNS(=O)(=O)c1cccc(NC(=O)CNC(=O)c2ccoc2)c1
inactive | C=CCOC(=O)NCCSc1nc2ccc(NC(=O)CCn3c(=O)oc4ccccc43)cc2s1
inactive | C=CCOC(=O)NCCSc1nc2ccc(NC(=O)c3ccccc3S(C)(=O)=O)cc2s1
inactive | CN(C)c1ccc(NC(=S)N2CCC(c3nc(C(=O)NC[C@@H]4COc5ccccc5O4)cs3)CC2)cc1
inactive | CC(C)(C)c1cc(O)nc(SCC(=O)N2CCCN(CC(=O)Nc3ccccc3C(C)(C)C)CC2)n1
inactive | CCCOCCNC(=O)c1ccc(C)nc1C1CCN(C(=O)c2cc(NC(C)=O)ccc2O)CC1
inactive | CN(C)c1ccc(NC(=S)N2CCC(c3nc(C(=O)NCCOc4ccccc4Cl)cs3)CC2)cc1
inactive | C=CCOC(=O)NCCSc1nc2ccc(NC(=O)CNC(=O)OC)cc2s1
inactive | O=C(CN1CCCN(C(=O)CNC(=O)C(F)(F)F)CC1)Nc1ccc(F)cc1F
inactive | C=CCOC(=O)NCCSc1nc2ccc(NC(=O)CS(=O)(=O)c3ccc(C)cc3)cc2s1
inactive | Cc1ccc(C(=O)Nc2nnc(C(C)(C)C)s2)c(C2CCN(C(=O)c3nc4ccccc4nc3O)CC2)n1

Same assay, conditions: concentration not given here

inhibition | SMILES
11% | C=CCOC(=O)NCCSc1nc2ccc(NC(=O)[C@H]3CC(=O)c4ccccc43)cc2s1
18% | COc1ccc(NC(C)=O)cc1NS(=O)(=O)c1ccc(NC(C)=O)cc1
19% | C=CCOC(=O)NCCSc1nc2ccc(NC(=O)CSc3nc(C)cc(C)n3)cc2s1
24% | CC(=O)Nc1ccc(S(=O)(=O)NNC(=O)Nc2ccccc2-c2ccccc2)cc1Cl
18% | O=C(NCC(=O)N1CCC2(CC1)CCN(C(=O)Cc1n[nH]c(=O)c3ccccc13)C2)c1ccco1
33% | C=CCOC(=O)NCCSc1nc2ccc(NC(=O)c3csnn3)cc2s1
6% | Cc1ccc(C(=O)NCCc2cc3ccccc3[nH]2)c(C2CCN(C(=O)CNC(=O)Nc3ccccc3)CC2)n1
22% | C=CCOC(=O)NCCSc1nc2ccc(NC(=O)CSc3ccccn3)cc2s1

Target: Protein-tyrosine kinase 2-beta (Homo sapiens) (UniProt Q14289)
Assay: Binding affinity to human Pyk2 FERM domain by LC/MS depletion assay
Settings: not given

Activity | SMILES
Active | C=CCOC(=O)NCCSc1nc2ccc(NC(=O)c3csnn3)cc2s1

Target: Protein-tyrosine kinase 2-beta (Homo sapiens) (UniProt Q14289)
Assay: Inhibition of Pyk2-mediated stimulation of human SF767 glioma cell migration at 5 uM by radial migration assay relative to control
Settings: not given

inhibition | SMILES
50% | C=CCOC(=O)NCCSc1nc2ccc(NC(=O)c3csnn3)cc2s1
